Reference: patent publication US12102063B2 (SYNEXIS LLC, priority 2017, dated 2024)
“And” between values parts separate entries of the source, which are not always exact repeats. Equal entries are not always repeated. Where two headings read alike, the source gives them in different places.

Key:
Influenza A (H1N1) = tested on: Influenza A (H1N1)
Method: Glass slides (1″×3″) are ethanol-sanitized and autoclaved prior to testing. The slides (carriers) are placed into sterile plastic petri dishes until use. Aliquots (0.010 ml) of diluted stock Influenza A (H1N1) are aseptically spread over a 1″×1″ square area of the carrier slide to prepare a virus film.
Virus Control carriers are placed into an adjacent modular room with the lids removed. One additional glass slide (with no virus film) is also placed into each testing chamber to perform cytotoxicity and neutralization validation controls. Upon closure of the respective study contact times (T=60 min and T=120 min), duplicate carriers are removed from each testing chamber. Duplicate carriers are also removed from the control modular room at each time point. Duplicate time zero carriers are harvested and enumerated promptly by eluting the films with 2 ml of influenza Infection Medium. Serial dilutions (1:10) are performed and dilutions 10−^1 to 10−^5 are plated in quadruplicate onto Madin-Darby Canine Kidney (MDCK) cell monolayers prepared to suitable confluency. Cell culture assay trays are incubated at 35° C. on an orbital rotator (60 rotations/minute) for 60 minutes to facilitate viral-host adsorption. Trays are removed from incubation, and Influenza infection Media is pipetted into each well (−1.0 ml). The trays are incubated for 7 days. The assay trays are observed regularly for the presence of cytotoxicity, viral cytopathic effects, and contamination. At the end of 7 days, plates are scored and the Spearman-Karber Method is used to compute viral titers and levels of cytotoxicity.

[1] = Delta Avg. Trtd versus Avg. Untrd, egg storage 4 to 7 days
[2] = Mean / Avg. Trtd, 22 DHP replicates, egg storage 4 to 7 days
[3] = with DHP, egg storage 4 days, single replicate of 90 eggs
[4] = with DHP, egg storage 5 days, single replicate of 90 eggs
[5] = with DHP, egg storage 6 days, single replicate of 90 eggs
[6] = with DHP, egg storage 7 days, single replicate of 90 eggs
[7] = Modular Room, 120 minutes contact

Method for eggs and hatched chicks: A total of 22 replicates of 90 eggs each of age matched, flock matched eggs are stored prior to incubation for 4 to 7 days in an on-site egg room at about 20° C. […] The paired replicates are then incubated to hatching under standard commercial conditions. At hatching, the following parameters are assessed and recorded: Total Hatchability (%), Fertile Hatchability (%),% Infertile, Early dead (%), Mid dead (%), Late dead (%), Cracked (%), Contaminated (%), Live pip (%), Dead pip (%), Cull dead chick (%), Chick Weight (g), Chick A (%), and Chick B (%).

Structure (SMILES): OO [DHP, dry hydrogen peroxide]
- Cont, delta (eggs and hatched chicks; [1]): −0.05%
- Crack, delta (eggs and hatched chicks; [1]): 0.05%
- Cull dead cks, delta (eggs and hatched chicks; [1]): −0.10%
- Dead pip, delta (eggs and hatched chicks; [1]): −0.30%
- Early dead, delta (eggs and hatched chicks; [1]): −1.70%
- Late dead, delta (eggs and hatched chicks; [1]): −0.97%
- Live pip, delta (eggs and hatched chicks; [1]): 0.35%
- Mid dead, delta (eggs and hatched chicks; [1]): 0.45%
- Cont (eggs and hatched chicks; [2]): 0.00%
- Crack (eggs and hatched chicks; [2]): 0.15%
- Cull dead cks (eggs and hatched chicks; [2]): 0.05%
- Dead pip (eggs and hatched chicks; [2]): 0.05%
- Live pip (eggs and hatched chicks; [2]): 0.61%
- Mid dead (eggs and hatched chicks; [2]): 0.61%
- improvement in number of A grade chicks (eggs and hatched chicks; all storage times): 0.23%
- increase of fertile hatchability vs untreated (eggs and hatched chicks; an additional day (five days)): 3.2%
- increase of total hatchability vs untreated (eggs and hatched chicks; an additional day (five days)): 1.3%
- increased weight vs untreated (eggs and hatched chicks; an additional day (five days)): 0.85 grams
- DHP gas treated eggs observed to be contaminated (eggs and hatched chicks; at day 7): none
- decrease of number of early deaths (eggs and hatched chicks; death during incubation): about 1.7%
- mid cycle deaths (eggs and hatched chicks; death during incubation): decreased
- change of fertile hatchability vs untreated (eggs and hatched chicks; eggs treated four days): +0.12
- change of total hatchability vs untreated (eggs and hatched chicks; eggs treated four days): −0.64%
- increased weight vs untreated (eggs and hatched chicks; eggs treated four days): +0.89 g
- increase of fertile hatchability vs untreated (eggs and hatched chicks; seven day storage): 0.56%
- increase of total hatchability vs untreated (eggs and hatched chicks; seven day storage): 0.56%
- increased weight vs untreated (eggs and hatched chicks; seven day storage): 1.10 grams
- increase of fertile hatchability vs untreated (eggs and hatched chicks; six days): 4.67%
- increase of total hatchability vs untreated (eggs and hatched chicks; six days): 2.96%
- increased weight vs untreated (eggs and hatched chicks; six days): 0.49 grams
- number of live pip eggs (eggs and hatched chicks; vs untreated): increases
- % Infer (eggs and hatched chicks; [3]): 0.00%
- Chick B (eggs and hatched chicks; [3]): 2.40% and 4.80% and 3.70%
- Cont (eggs and hatched chicks; [3]): 0.00%
- Crack (eggs and hatched chicks; [3]): 0.00%
- Cull dead (eggs and hatched chicks; [3]): 0.00%
- Dead pip (eggs and hatched chicks; [3]): 0.00%
- Late dead (eggs and hatched chicks; [3]): 0.00%
- Live pip (eggs and hatched chicks; [3]): 0.00%
- Mid dead (eggs and hatched chicks; [3]): 0.00%
- % Infer (eggs and hatched chicks; [4]): 10.00%
- Chick A (eggs and hatched chicks; [4]): 100.0%
- Cont (eggs and hatched chicks; [4]): 0.00%
- Crack (eggs and hatched chicks; [4]): 0.00%
- Cull dead (eggs and hatched chicks; [4]): 0.00%
- Dead pip (eggs and hatched chicks; [4]): 0.00%
- Late dead (eggs and hatched chicks; [4]): 0.00%
- Live pip (eggs and hatched chicks; [4]): 0.00%
- Mid dead (eggs and hatched chicks; [4]): 0.00%
- Total Hatchblty (eggs and hatched chicks; [4]): 90.00%
- % Infer (eggs and hatched chicks; [5]): 0.00%
- Chick B (eggs and hatched chicks; [5]): 4.80%
- Cont (eggs and hatched chicks; [5]): 0.00%
- Crack (eggs and hatched chicks; [5]): 0.00%
- Cull dead (eggs and hatched chicks; [5]): 0.00%
- Dead pip (eggs and hatched chicks; [5]): 0.00%
- Late dead (eggs and hatched chicks; [5]): 0.00%
- Live pip (eggs and hatched chicks; [5]): 0.00%
- Mid dead (eggs and hatched chicks; [5]): 0.00%
- Total Hatchblty (eggs and hatched chicks; [5]): 90.00%
- % Infer (eggs and hatched chicks; [6]): 0.00%
- Check Weight (eggs and hatched chicks; [6]): 44.94 g and 44.41 g
- Cont (eggs and hatched chicks; [6]): 0.00%
- Crack (eggs and hatched chicks; [6]): 0.00%
- Cull dead (eggs and hatched chicks; [6]): 0.00%
- Dead pip (eggs and hatched chicks; [6]): 0.00%
- Live pip (eggs and hatched chicks; [6]): 0.00%
- Mid dead (eggs and hatched chicks; [6]): 0.00%
- Log10 (Influenza A (H1N1); Hood Chamber, 60 minutes contact): >=2.62 Log10
- Log10 (Influenza A (H1N1); Hood Chamber, 120 minutes contact): >=1.87 Log10
- % Reduction (Influenza A (H1N1); Modular Room, 60 minutes contact): 87%
- Log10 (Influenza A (H1N1); Modular Room, 60 minutes contact, DHP 0.6-1.0 ppm): 0.87 Log10
- % Reduction (Influenza A (H1N1); [7]): 76%
- Log10 (Influenza A (H1N1); [7]): 0.62 Log10
